Measured values reported in patent US12410163B2, “Compounds as GLP-IR agonists” (Terns Pharmaceuticals, Inc., priority 2022, dated 2025).

Test: Metabolic stability in hepatocytes
Assay type: in vitro ADME
Settings: cryopreserved human hepatocytes (suspension), 1×10^6 cells/mL
Method: Test compounds are incubated in human hepatocytes and stability is assessed from the substrate […] approach. Test compounds are dissolved in dimethyl sulfoxide (DMSO) to create a 10 mM Stock, and then further diluted to create a 1000× Working Stock of 1 mM with DMSO in 96-well plates for test compounds and the positive control (midazolam). Vials containing cryopreserved hepatocytes are removed from the liquid nitrogen tank and immediately immersed in a 37° C. water bath. The vials are shaken gently until the contents had thawed and were then immediately emptied into 48 mL of pre-warmed HT Medium in a 50 mL conical tube. Cells remaining in the vial are resuspended with 1.0 mL of pre-warmed HT Medium and added to the conical tube. The tube is capped and then gently inverted several times to resuspend the hepatocytes. The cell suspension is centrifuged at 50×g at room temperature for 5 minutes and the supernatant discarded. The cell pellet is loosened by gently swirling the centrifuge tube and is re-suspended in 4 mL of warm Dulbecco's Modified Eagle medium (DMEM). Cell density is determined by a cell counter by Nexcelom, and DMEM medium is added to obtain a target density of 1×10^6 cells/mL. The assay is carried out in 96-well microtiter plates. Test Compounds are incubated at 1 μM with 1×10^6 cells/mL hepatocytes in DMEM for 0, 30, 60, 120 and 240 minutes. The incubation is carried out with gentle shaking at 37° C. under a humid atmosphere of 95% air/5% CO2. The volume of the incubation mixture is 37 μL with a final 0.1% DMSO. At each of the time points, the incubation is stopped by adding 150 μL quenching solution (100% acetonitrile, 0.1% formic acid containing bucetin as an internal standard for positive ESI mode). Subsequently, the mixtures are vortexed for 20 min and centrifuged at 4,000 RPM at 10° C. The supernatant (80 μL) is transferred to a clean 96-well plate and analyzed by LC-MS/MS. Midazolam at 1 μM with a final 0.1% DMSO is included as a positive control to verify assay performance. The percent parent remaining, intrinsic and predicted hepatic clearance and t1/2 are calculated. All samples are analyzed by LC-MS/MS using an AB Sciex API 4000 instrument, coupled to a Shimadzu LC-20AD LC Pump system. Separation is achieved using a Waters Atlantis T3 dC18 reverse phase HPLC column (20 mm×2.1 mm) at a flow rate of 0.5 mL/min. The mobile phase consisted of 0.1% formic acid in water (solvent A) and 0.1% formic acid in 100% acetonitrile (solvent B). Elution conditions are detailed below.
The ion optics of each test compound are optimized for their declustering potential (DP), […] (CE), collision-cell exit potential (CXP) and used in a selected ion monitoring experiment in the positive ion mode. The peak area ratio of each test compound to internal standard is then evaluated for stability. The extent of metabolism is calculated based on the disappearance of the test compound, compared to its initial concentration. The initial rates of clearance of the test compound are calculated using the linear regression plot of semi-log % remaining of the compound versus time. The elimination rate constant (k) of the linear regression plot is then used to determine t1/2 and the intrinsic clearance (CLint) using the following formula, where Chepatocyte (million cells/mL) is the cell density of the incubation: k=−slope t1/2=0.693/k CLint=k/Chepatocyte
Test compounds were incubated in human hepatocytes and stability was assessed from the substrate […] approach. Test compounds were dissolved in dimethyl sulfoxide (DMSO) to create a 10 mM Stock, and then further diluted to create a 1000× Working Stock of 1 mM with DMSO in 96-well plates for test compounds and the positive control (midazolam). Vials containing cryopreserved hepatocytes were removed from the liquid nitrogen tank and immediately immersed in a 37° C. water bath. […]

- half-life at 1 μM (0-240 min, read-out: hHep t1/2): 2.6 h
- CLint scaled at 1 μM (intrinsic clearance, read-out: hHep CLint): 15.5 mL/min/kg
Structure (SMILES): N#Cc1ccc(COc2cccc(C3CCN(Cc4nc5ccc(C(=O)O)cc5n4C[C@@H]4CCO4)CC3)n2)c(F)c1 [Reference Compound B, reference compound]
